Values after ≈ are worked out from the molar mass of the structure shown. Non-standard residues stand in square brackets, D forms with d. Residues, ends and D or L forms follow the SMILES beside them. *: point of attachment. Galloyl = O=C(c1cc(O)c(O)c(O)c1)*; Dab = NCC[CH](N)C(=O)O
How the values were obtained:
[1] = system: UEA-1 binding sites on Caco-2 cell membrane preparations; assay: Two tier competition assay: compound incubated alone with membranes, biotinylated UEA-1 added in next step; design: species or system human; settings: for Avg % Inhib / Av % Inhibition: Two Tier Assay; for Avg % Inhib: library TP1012; for Av % Inhibition: library MSI 22
Protocol: (§1) The epithelial cell binding ability of compounds and mixtures obtained from synthetic combinatorial libraries was determined by competition assays. These assays were set up to measure the inhibition of binding of biotinylated UEA-1 to membrane preparations of the epithelial cell line Caco-2 (colon carcinoma cells-2), by compounds and mixtures of the combinatorial libraries. This cell line is a conventional model for epithelial cells.
(§2) Two competition inhibition assays were used in this case, namely single tier and two tier assays. These assays differed from each other in that in the single tier assay, the mixtures/compounds and the biotinylated UEA-1 were incubated together with the Caco-2 cell membrane preparations, while in case of the two-tier assay, the mixture/compounds were allowed to incubate alone with the cell membranes in the absence of biotinylated UEA-1, which was added in the next step. Addition of the extra step in the two-tier assay was to ensure that the compounds inhibiting the binding of biotinylated UEA-1 to the Caco-2 cell membranes were doing so by themselves binding to surface receptors on the Caco-2 cells and not to the biotinylated UEA-1. Each assay will be described in detail.
(§3) • 1. Confluent Caco-2 cell monolayers (grown in 75 cm^2 flasks for up to 1 week at 37° C. and 5% CO2) were washed twice in Dulbecco's PBS (DPBS). • 2. Cell monolayers were treated with 10 mM EDTA-DPBS for 5–10 min at 37° C. and cells were harvested by centrifugation at 1000 rpm for 5 min. • 3. Cells were washed 3 times in DPBS. • 4. […] The cells were homogenised for 30 sec. • 6. The homogenates were centrifuged in hard walled tubes at 40,000 rpm for 45 min at 4° C. • 7. […] The supernatant was removed and stored on ice. The procedure was repeated adding the second supernatant to the first. • 8. The protein concentration was determined using e.g. a Bio-Rad protein assay. • 9. All fractions were stored at −80° C. prior to use. Single Tier Assays: • 1. 96-well microtiter plates were coated with membrane preparations of Caco-2 cells either by allowing them to incubate on the plates for 2½ hours at room temperature or by incubating them overnight at 4° C. 100 μl of 10 μg/ml (in 0.05 M carbonate buffer, pH 9.6) of membrane preparation was added to each well. • 2. The plates were flicked out, patted dry and blocked with bovine serum albumin (BSA)/DPBS (200 μl/well) for 1 to 4 hours at room temperature after which they were washed three times in water. • 3. […] Control wells were also set up in which the Caco-2 cell membrane preparations were incubated with unconjugated UEA-1. […] Following overnight incubation the plates were washed thoroughly (3–6 times). The plates were flicked out, patted dry and biotinylated UEA-1 was detected with commercial Streptavidin conjugated to horseradish peroxidase (HRP) (CalBiochem). […] The plates were left to incubate for an hour at room temperature. • 6. The plates were then washed 3–6 times and the biotin-streptavidin binding was detected by adding an HRP substrate OPD (orthophenyl diamine) to each well. 100 μl/well of this substrate at a final concentration of 1.6 mg/ml was added to each well. Before adding to the wells, this substrate was activated by addition of 50 μl of 3% H2O2 per plate and the reaction was allowed to develop in the dark. • 7. The reaction was stopped by adding 50 μl of 4 N H2SO4 to each well after approximately 5–10 minutes or when sufficient colour had developed. The OD490 (absorbance at 490 nm) of each well was measured using a conventional 96 well plate reading spectrophotometer. Two Tier Assays: • 1. 96 well plates were coated with Caco-2 cell membrane preparations in the same manner as described in the single tier assay. • 2. […] 100 μl at these final concentrations were added to each well. • 4. The plates were then left to incubate overnight, a step that would allow the mixtures and compounds to interact with the Caco-2 cell membranes without the presence of the competitor (biotinylated UEA-1) itself. • 5. […]

[2] = system: UEA-1 binding sites on Caco-2 cell membrane preparations; assay: Single tier competition assay: inhibition of biotinylated UEA-1 binding, compound and biotinylated UEA-1 incubated together; design: species or system human; settings: for Av % Inhibition: Single Tier Assay, library MSI 22
Protocol: as §1, §2, §3

[3] = library MSI 27, read-out: Two Tier Assay IC50
[4] = library MSI 27, read-out: Single Tier Assay IC50
[5] = Table 8, galloyl constructs, read-out: IC 50 (uM) 2nd tier
[6] = Table 8, galloyl constructs, read-out: IC 50 (uM) 1st tier (converted)

SMILES | Avg % Inhib ([1]; 50 μg/ml) [%] | Avg % Inhib ([1]; 250 μg/ml) [%] | IC50 [1, 3] [µM] | IC50 [2, 4] [µM] | other results
CCCC[C@@H](CNC)N(C)C[C@H](CC1CCCCC1)NC(=O)c1cc(O)c(O)c(O)c1 [compound 96] | 42.93 | 65.78 |  |  | 
CCCC[C@H](CNC)N(C)C[C@H](CC1CCCCC1)NC(=O)c1cc(O)c(O)c(O)c1 [compound 90] | 53.66 | 69.94 |  |  | 
COc1cc(C(=O)NCCCC[C@@H](NC(=O)[C@@H](CCCCNC(=O)c2cc(OC)c(OC)c(OC)c2)NC(=O)[C@@H](CCCCNC(=O)c2cc(OC)c(OC)c(OC)c2)NC(=O)c2cc(OC)c(OC)c(OC)c2)C(N)=O)cc(OC)c1OC [Cpd 44] |  |  | 212 | 212 | 
CNC[C@@H](Cc1ccc2ccccc2c1)N(C)C[C@H](NC(=O)c1cc(O)c(O)c(O)c1)C(C)C [D-Napala, D-Val, Gallic Acid] |  |  |  |  | Av % Inhibition ([1]; 62.5 μg/ml): 24.2%; Av % Inhibition ([1]; 250 μg/ml): 46.9%; Av % Inhibition ([2]; 62.5 μg/ml): 4.7%; Av % Inhibition ([2]; 250 μg/ml): 26.8%
NC(=O)C(CCCNC(=O)c1cc(O)c(O)c(O)c1)NC(=O)C(CCCNC(=O)c1cc(O)c(O)c(O)c1)NC(=O)C(CCCNC(=O)c1cc(O)c(O)c(O)c1)NC(=O)c1cc(O)c(O)c(O)c1 (stereo not drawn) [MSI 34 #19] |  |  |  |  | IC 50 (ug/ml) 2nd tier ([1]; Table 8, galloyl constructs): 1 µg/mL (≈ 1.03 µM); IC50 [1, 5]: 1 µM; IC 50 (ug/ml) 1st tier ([2]; Table 8, galloyl constructs): 11 µg/mL (≈ 11.4 µM); IC50 [2, 6]: 11 µM
NC(=O)[C@@H](CCCCNC(=O)c1cc(O)cc(O)c1)NC(=O)[C@@H](CCCCNC(=O)c1cc(O)cc(O)c1)NC(=O)[C@@H](CCCCNC(=O)c1cc(O)cc(O)c1)NC(=O)c1cc(O)cc(O)c1 [Cpd 48] |  |  | 264 | 264 | 
CC(=O)NC(CCCCNC(=O)c1cc(O)cc(O)c1)C(=O)NC(CCCCNC(=O)c1cc(O)cc(O)c1)C(N)=O (stereo not drawn) [Cpd 40] |  |  | 425 | 425 | 
COc1cc(C(=O)NCCCCC(NC(=O)c2cc(OC)c(O)c(OC)c2)C(N)=O)cc(OC)c1O (stereo not drawn) [Cpd 1] |  |  | 495 | 495 | 
NC(=O)C(CCCCNC(=O)c1ccc(O)cc1)NC(=O)c1ccc(O)cc1 (stereo not drawn) [Cpd 7] |  |  | 649 | 649 | 
CC(=O)NC(CNC(=O)c1cc(O)c(O)c(O)c1)C(=O)NC(CNC(=O)c1cc(O)c(O)c(O)c1)C(=O)NC(CNC(=O)c1cc(O)c(O)c(O)c1)C(N)=O (stereo not drawn) [MSI 34 #13] |  |  |  |  | IC 50 (ug/ml) 2nd tier ([1]; Table 8, galloyl constructs): 1st tier = 22nd tier = 2 ug/ml; IC50 [1, 5]: 2 µM; IC 50 (ug/ml) 1st tier ([2]; Table 8, galloyl constructs): 1st tier = 22nd tier = 2 ug/ml; IC50 [2, 6]: 3 µM
NC(=O)C(CCNC(=O)c1cc(O)c(O)c(O)c1)NC(=O)C(CCNC(=O)c1cc(O)c(O)c(O)c1)NC(=O)c1cc(O)c(O)c(O)c1 (stereo not drawn) [MSI 34 #10] |  |  |  |  | IC 50 (ug/ml) 2nd tier ([1]; Table 8, galloyl constructs): 0.7 µg/mL (≈ 1.04 µM); IC50 [1, 5]: 1 µM; IC 50 (ug/ml) 1st tier ([2]; Table 8, galloyl constructs): 0.6 µg/mL (≈ 0.891 µM); IC50 [2, 6]: 0.9 µM
CCOc1cc(C(=O)NCCCCC(NC(=O)c2cc(OCC)c(OCC)c(OCC)c2)C(=O)NCCCCC(NC(=O)C(CCCCNC(=O)c2cc(OCC)c(OCC)c(OCC)c2)NC(=O)c2cc(OCC)c(OCC)c(OCC)c2)C(N)=O)cc(OCC)c1OCC (stereo not drawn) [Cpd 19] |  |  | 186 | 186 | 
NC(=O)[C@@H](CCCCNC(=O)c1cc(O)c(O)c(O)c1)NC(=O)[C@@H](CCCCNC(=O)c1cc(O)c(O)c(O)c1)NC(=O)[C@@H](CCCCNC(=O)c1cc(O)c(O)c(O)c1)NC(=O)[C@@H](CCCCNC(=O)c1cc(O)c(O)c(O)c1)NC(=O)[C@@H](CCCCNC(=O)c1cc(O)c(O)c(O)c1)NC(=O)[C@@H](CCCCNC(=O)c1cc(O)c(O)c(O)c1)NC(=O)[C@@H](CCCCNC(=O)c1cc(O)c(O)c(O)c1)NC(=O)c1cc(O)c(O)c(O)c1 [MSI 30 #16] (Galloyl-[dK](Galloyl)[dK](Galloyl)[dK](Galloyl)[dK](Galloyl)[dK](Galloyl)[dK](Galloyl)[dK](Galloyl)-NH2) |  |  |  |  | IC 50 (ug/ml) 2nd tier ([1]; Table 8, galloyl constructs): 8 µg/mL (≈ 3.75 µM); IC50 [1, 5]: 4 µM; IC 50 (ug/ml) 1st tier ([2]; Table 8, galloyl constructs): 19 µg/mL (≈ 8.92 µM); IC50 [2, 6]: 9 µM
NC(=O)[C@@H](CCCCNC(=O)c1ccc(O)cc1)NC(=O)[C@@H](CCCCNC(=O)c1ccc(O)cc1)NC(=O)[C@@H](CCCCNC(=O)c1ccc(O)cc1)NC(=O)c1ccc(O)cc1 [Cpd 47] |  |  | 283 | 283 | 
COc1ccc(C(=O)NCCCC[C@@H](NC(=O)[C@@H](CCCCNC(=O)c2ccc(OC)c(OC)c2)NC(=O)[C@@H](CCCCNC(=O)c2ccc(OC)c(OC)c2)NC(=O)c2ccc(OC)c(OC)c2)C(N)=O)cc1OC [Cpd 42] |  |  | 108 | 101 | Two Tier Assay IC50 ([1]; library MSI 27): 113.80 µg/mL; Single Tier Assay IC50 ([2]; library MSI 27): 107.00 µg/mL
CC(=O)N[C@H](CCCCNC(=O)c1cc(O)c(O)c(O)c1)C(=O)N[C@H](CCCCNC(=O)c1cc(O)c(O)c(O)c1)C(=O)N[C@H](CCCCNC(=O)c1cc(O)c(O)c(O)c1)C(=O)N[C@H](CCCCNC(=O)c1cc(O)c(O)c(O)c1)C(=O)N[C@H](CCCCNC(=O)c1cc(O)c(O)c(O)c1)C(=O)N[C@H](CCCCNC(=O)c1cc(O)c(O)c(O)c1)C(N)=O [MSI 30 #11] |  |  |  |  | IC 50 (ug/ml) 2nd tier ([1]; Table 8, galloyl constructs): 2 µg/mL (≈ 1.15 µM); IC50 [1, 5]: 1 µM; IC 50 (ug/ml) 1st tier ([2]; Table 8, galloyl constructs): 13 µg/mL (≈ 7.47 µM); IC50 [2, 6]: 7 µM
CC(=O)NC(CCNC(=O)c1cc(O)c(O)c(O)c1)C(=O)NC(CCNC(=O)c1cc(O)c(O)c(O)c1)C(=O)NC(CCNC(=O)c1cc(O)c(O)c(O)c1)C(=O)NC(CCNC(=O)c1cc(O)c(O)c(O)c1)C(N)=O (stereo not drawn) [MSI 34 #22] (Ac-[Dab](Galloyl)[Dab](Galloyl)[Dab](Galloyl)[Dab](Galloyl)-NH2; configuration not given here) |  |  |  |  | IC 50 (ug/ml) 2nd tier ([1]; Table 8, galloyl constructs): 1 µg/mL (≈ 0.936 µM); IC50 [1, 5]: 1 µM; IC 50 (ug/ml) 1st tier ([2]; Table 8, galloyl constructs): 3 µg/mL (≈ 2.81 µM); IC50 [2, 6]: 3 µM
CCCCC(CNC)N(C)CC(CC1CCCCC1)NC(=O)c1cc(O)c(O)c(O)c1 (stereo not drawn) [compound 86] | 61.61 | 76.23 |  |  | 
CNC[C@H](Cc1ccc(F)cc1)N(C)C[C@H](Cc1ccc(F)cc1)NC(=O)Cc1ccc(Cl)c(Cl)c1 [compound 141] | 41.43 | 72.64 |  |  | 
CNC[C@H](CC(C)C)N(C)C[C@H](Cc1ccccc1)NC(=O)c1cc(O)c(O)c(O)c1 [compound 125] | 61.02 | 77.78 |  |  | 
CCCC[C@@H](CNC)N(C)C[C@@H](CC1CCCCC1)NC(=O)c1cc(O)c(O)c(O)c1 [compound 92] | 54.8899 | 67.7 |  |  | 
CNC[C@H](Cc1ccc(F)cc1)N(C)C[C@H](Cc1ccc(F)cc1)NC(=O)Cc1cccc(C(F)(F)F)c1 [compound 144] | 42.26 | 66.71 |  |  | 

From patent US7166296B2, “Pharmaceutical formulations and ligands for use therein; mimetics for UEA-1” (Sarlan, Ltd., priority 2001, dated 2007)
